Patent publication US20170136001A1, “METHOD OF TREATING A VIRAL INFECTION USING ELVITEGRAVIR COMBINATIONS” (priority 2007, published 2017)

How the values were obtained:
[1] = Study 2: steady-state pharmacokinetic interaction between atazanavir/r and the Compound (85 mg test, 150 mg reference); assay type: in vivo, human
Text: Consideration was given to achieving equivalent Compound exposures in patients receiving and not receiving atazanavir using pharmacokinetic (bio-) equivalence comparisons (Pharsight Corporation, Mountain View, Calif., USA). Consideration was also given to minimizing the number of individuals with extreme outliers in (low or high) exposures.

[2] = Study 1: steady-state pharmacokinetic interaction between atazanavir/r and the Compound (200 mg); assay type: in vivo, human
Text: This study evaluated the safety and steady-state pharmacokinetics of the coadministered Compound and ATV/r.

[3] = Example 2: pharmacokinetic interaction, EVG/ATV 300/400 mg versus EVG/r 300/100 mg, with midazolam CYP3A probe; conditions: midazolam oral syrup 5 mg with last dose; EVG/ATV vs. EVG/r
Protocol: This study evaluated the safety and steady-state pharmacokinetics of the co-administered Compound and ATV.
Healthy subjects received EVG/r 300/100 mg or EVG/ATV 300/400 mg in a randomized, crossover manner for 10 days each, with the last dose being coadministered with the CYP3A probe substrate midazolam (oral syrup; 5 mg) and pharmacokinetic (PK) sampling performed. […] ATV, midazolam, and ritonavir pharmacokinetics were also determined for descriptive statistics.

COC(=O)N[C@H](C(=O)N[C@@H](Cc1ccccc1)[C@@H](O)CN(Cc1ccc(-c2ccccn2)cc1)NC(=O)[C@@H](NC(=O)OC)C(C)(C)C)C(C)(C)C [ATV, 1-[4-(pyridine-2-yl)-phenyl]-4(S)-2,5-bis-[N—(N-methoxycarbonyl-(L)-tert-leucyl)amino]-6-phenyl-2-axahexane]
Cmax % GMR (90% CI) ([1]; Study 2, coadministration (the Compound 85 mg + ATV/r 300/100 mg QD) : alone (the Compound reference 150 mg), 14 days, healthy subjects): 96.0%
ATV exposures ([1]; with the reduced 85 mg dose of the Compound): not affected

COc1cc2c(cc1Cc1cccc(Cl)c1F)c(=O)c(C(=O)O)cn2[C@H](CO)C(C)C [the Compound, 6-(3-chloro-2-fluorobenzyl)-1-[(2S)-1-hydroxy-3-methylbutan-2-yl]-7-methoxy-4-oxo-1,4-dihydroquinoline-3-carboxylic acid]
AUCtau % GMR (90% CI) ([2]; Study 1, coadministration (the Compound 200 mg + ATV/r 300/100 mg QD) : alone, 14 days, healthy subjects): 200%
the Compound exposures upon coadministration with ATV/r ([2]; coadministration with ATV/r): elevated
systemic exposure ([1]; 85 mg of the Compound with ritonavir-boosted atazanavir compared with the 150 mg dose of the Compound alone): equivalent

Cc1ncc2n1-c1ccc(Cl)cc1C(c1ccccc1F)=NC2 [midazolam]
midazolam AUCinf geometric mean ratio (90% CI) [3]: 89.5 (80.7, 99.3)
midazolam Cmax geometric mean ratio (90% CI) [3]: 98.8 (89.6, 109)
